Test results taken from ChEMBL document CHEMBL5096184, “Structure activity relationship in β-carboline derived anti-malarial agents” (Eur J Med Chem, 2021).

Each compound was assayed on Plasmodium falciparum (assay: Antiplasmodial activity against chloroquine sensitive Plasmodium falciparum FCA 20/Ghana). Details: not given.
Format: functional, organism-based

First: CC1C2=CN3CCc4c([nH]c5ccc(O)cc45)C3CC2CC2C3C(CCN2C)c2ccccc2N13 (stereo in doubt; 33)
Second: CN1CCc2c3n(c4ccccc24)C(O)C[C@H](C2=CCOC2=O)C[C@@H]31 (stereo partly specified)
The IC50 of the first is 2.7-fold lower: 9.55 µM for the first, 25.9 µM for the second.

Same assay, conditions: Plasmodium falciparum, FCA 20/Ghana

Going from `C=C[C@H]1CN2CCc3c([nH]c4ccc(O)cc34)[C@@H]2C[C@@H]1CC1c2[nH]c3ccccc3c2CCN1C` (stereo partly specified) to `CC[C@H]1CN2CCc3c([nH]c4ccccc34)[C@@H]2C[C@@H]1C[C@H]1NCCc2c1[nH]c1ccccc21`, the IC50 falls from 0.48 µM to 0.118 µM (4.1-fold).

`CC1C2=CN3CCc4c([nH]c5ccc(O)cc45)C3CC2CC2C3C(CCN2C)c2ccccc2N13` (stereo in doubt; 34) and `CN1CCc2c3n(c4ccccc24)C(O)C[C@H](C2=CCOC2=O)C[C@@H]31` (stereo partly specified) are within 1.5-fold of each other in IC50: 12.6 µM for the first, 17 µM for the second.

Each compound was assayed on Plasmodium falciparum (assay: Antiplasmodial activity against chloroquine sensitive Plasmodium falciparum FCB1-R/Colombia). Details: not given.
Format: functional, organism-based

`CC1C2=CN3CCc4c([nH]c5ccc(O)cc45)C3CC2CC2C3C(CCN2C)c2ccccc2N13` (stereo in doubt; 34) was tested, and the IC50 was 2 µM.

What follows are compounds tested on Plasmodium falciparum (assay: Antiplasmodial activity against chloroquine sensitive Plasmodium falciparum W2/Indochina). Details: not given.
Format: functional, organism-based

Work on `CC1C2=CN3CCc4c([nH]c5ccc(O)cc45)C3CC2CC2C3C(CCN2C)c2ccccc2N13` (stereo in doubt; 34) yielded an IC50 of 4.57 µM.
`CC1C2=CN3CCc4c([nH]c5ccc(O)cc45)C3CC2CC2C3C(CCN2C)c2ccccc2N13` (stereo in doubt; 33) was tested, and the IC50 was 12.7 µM.

Same assay, conditions: Plasmodium falciparum, W2/Indochina

Going from `C=C[C@H]1CN2CCc3c([nH]c4ccc(O)cc34)[C@@H]2C[C@@H]1CC1c2[nH]c3ccccc3c2CCN1C` (stereo partly specified) to `CC[C@H]1CN2CCc3c([nH]c4ccccc34)[C@@H]2C[C@@H]1C[C@H]1NCCc2c1[nH]c1ccccc21`, the IC50 rises from 0.16 µM to 0.492 µM (3.1-fold). The first is the more potent here.

What follows are compounds tested on Plasmodium falciparum (assay: Antimalarial activity against multi drug resistant Plasmodium falciparum W2). Details: not given.
Format: functional, organism-based

First: Cc1ccc(C2NCCc3c2[nH]c2ccccc32)cc1 (stereo unspecified)
Second: COc1ccc(C2NCCc3c2[nH]c2ccccc32)cc1 (stereo unspecified)
The IC50 of the first is 11-fold higher: 7.6 µM for the first, 0.7 µM for the second.

`Cc1ccc(C2NCCc3c2[nH]c2ccccc32)c(C)c1` (stereo unspecified) and `Cc1ccc(C)c(C2NCCc3c2[nH]c2ccccc32)c1` (stereo unspecified) are within 1.5-fold of each other in IC50: 25.3 µM for the first, 28.9 µM for the second.

Going from `Cc1cccc(C2NCCc3c2[nH]c2ccccc32)c1` (stereo unspecified) to `c1ccc(C2NCCc3c2[nH]c2ccccc32)cc1` (stereo unspecified), the IC50 falls from 38.1 µM to 8.1 µM (4.7-fold). The second is the more potent here.

Going from `Cc1ccccc1C1NCCc2c1[nH]c1ccccc21` (stereo unspecified) to `CC1NCCc2c1[nH]c1ccccc21` (stereo unspecified) [TETRAHYDROHARMAN], the IC50 falls from 15.2 µM to 1.4 µM (11-fold).

The compounds below were run on Plasmodium falciparum (assay: Antimalarial activity against Plasmodium falciparum W2 (MRA-157) incubated for 72 hrs). Details: not given.
Format: functional, organism-based

Going from `O=[N+]([O-])c1cccc(C2NCCc3c2[nH]c2ccccc32)c1` (stereo unspecified) to `O=[N+]([O-])c1ccc(C2NCCc3c2[nH]c2ccccc32)cc1` (stereo unspecified), the IC50 falls from 13.6 µM to 1.7 µM (8-fold). The second is the more potent here.

`COc1cccc(C2NCCc3c2[nH]c2ccccc32)c1` (stereo unspecified) and `COc1ccc(OC)c(C2NCCc3c2[nH]c2ccccc32)c1` (stereo unspecified) are within 1.5-fold of each other in IC50: 25.1 µM for the first, 29.2 µM for the second.

`Brc1ccc(C2NCCc3c2[nH]c2ccccc32)cc1` (stereo unspecified) and `Clc1ccc(C2NCCc3c2[nH]c2ccccc32)cc1` (stereo unspecified) are within 1.5-fold of each other in IC50: 6.9 µM for the first, 4.8 µM for the second.

`N#Cc1ccc(C2NCCc3c2[nH]c2ccccc32)cc1` (stereo unspecified) and `Fc1ccc(C2NCCc3c2[nH]c2ccccc32)cc1` (stereo unspecified) are the same in IC50: 1.1 µM for the first, 1.1 µM for the second.

`CC1NCCc2c1[nH]c1ccc(Cl)cc21` (stereo unspecified) and `CC1NCCc2c1[nH]c1ccc(Br)cc21` (stereo unspecified) are within 1.5-fold of each other in IC50: 4.2 µM for the first, 5.7 µM for the second.

First: CN(C)c1ccc(C2NCCc3c2[nH]c2ccccc32)cc1 (stereo unspecified)
Second: FC(F)(F)c1ccc(C2NCCc3c2[nH]c2ccccc32)cc1 (stereo unspecified)
The IC50 of the first is 3.2-fold lower: 3.9 µM for the first, 12.6 µM for the second.

Going from `O=[N+]([O-])c1ccccc1C1NCCc2c1[nH]c1ccccc21` (stereo unspecified) to `COc1cc(C2NCCc3c2[nH]c2ccccc32)c([N+](=O)[O-])cc1OC` (stereo unspecified), the IC50 falls from 47.7 µM to 11.3 µM (4.2-fold).

With `COc1ccc(C2NCCc3c2[nH]c2ccccc32)cc1OC` (stereo unspecified) the IC50 was > 81.1 µM.

The compounds below were run on Plasmodium berghei (assay: Antiplasmodial activity against Plasmodium berghei assessed as reduction in parasitemia). Details: not given.
Format: functional, organism-based

`COC(=O)[C@@H]1Cc2c([nH]c3ccccc23)[C@H](c2ccc3c(c2)OCO3)N1` and `COC(=O)[C@@H]1Cc2c([nH]c3ccccc23)[C@@H](c2ccc3c(c2)OCO3)N1` cannot be ordered by IC50: < 5 µg/mL for the first, < 5 µg/mL for the second.

`CCCCCC[C@@H]1N[C@H](C(=O)OC)Cc2c1[nH]c1ccccc21` and `CCCCCC[C@H]1N[C@H](C(=O)OC)Cc2c1[nH]c1ccccc21` cannot be ordered by IC50: < 5 µg/mL for the first, < 5 µg/mL for the second.

`COC(=O)[C@@H]1Cc2c([nH]c3ccccc23)[C@@H](c2cccs2)N1` and `COC(=O)[C@@H]1Cc2c([nH]c3ccccc23)[C@H](c2cccs2)N1` cannot be ordered by IC50: < 5 µg/mL for the first, < 5 µg/mL for the second.

`COC(=O)[C@@H]1Cc2c([nH]c3ccccc23)[C@@H](c2cccnc2)N1` and `COC(=O)[C@@H]1Cc2c([nH]c3ccccc23)[C@H](c2cccnc2)N1` cannot be ordered by IC50: < 5 µg/mL for the first, < 5 µg/mL for the second.

Each compound was assayed on Plasmodium falciparum (assay: Antimalarial activity against Plasmodium falciparum K1). Details: not given.
Format: functional, organism-based

First: Clc1ccc2[nH]c3c(N4CCC(N5CCCCC5)CC4)nccc3c2c1
Second: Clc1ccc2[nH]c3c(N4CCC(N5CCCC5)CC4)nccc3c2c1
The IC50 of the first is 11-fold higher: 10.2 µM for the first, 0.93 µM for the second. The second is the more potent here.

First: OC1CCCN(c2nccc3c2[nH]c2ccccc23)C1 (stereo unspecified)
Second: c1ccc2c(c1)[nH]c1c(N3CCCCC3)nccc12
The IC50 of the first is 2.8-fold higher: 3.4 µM for the first, 1.2 µM for the second.

First: CCN(CC)CCCNc1nccc2c1[nH]c1ccc(F)cc12
Second: CCN(CC)CCCNc1nccc2c1[nH]c1ccc(Cl)cc12
The IC50 of the first is 3-fold lower: 0.36 µM for the first, 1.08 µM for the second. The first is the more potent here.

`c1ccc2c(c1)[nH]c1c(N3CCC(N4CCCC4)CC3)nccc12` and `c1ccc2c(c1)[nH]c1c(N3CCC(N4CCCCC4)CC3)nccc12` are within 1.5-fold of each other in IC50: 0.45 µM for the first, 0.39 µM for the second.

Going from `CCN(CC)CCC(C)Nc1nccc2c1[nH]c1ccccc12` (stereo unspecified) to `CCN(CC)CCC(C)Nc1nccc2c1[nH]c1ccc(Cl)cc12` (stereo unspecified), the IC50 falls from 0.42 µM to 0.24 µM (1.8-fold). The second is the more potent here.

Compared with `c1ccc2c(c1)[nH]c1c(N3CCOCC3)nccc12`, `CN1CCN(c2nccc3c2[nH]c2ccccc23)CC1` is 7.4-fold lower in IC50: 4.59 µM for the first, 0.62 µM for the second.

`c1ccc2c(c1)[nH]c1c(N3CCC(N4CCCCCC4)CC3)nccc12` and `CCN(CC)C1CCN(c2nccc3c2[nH]c2ccccc23)CC1` are within 1.5-fold of each other in IC50: 0.35 µM for the first, 0.41 µM for the second.

`CN(C)CCCNc1nccc2c1[nH]c1ccccc12` and `CCN(CC)CCCNc1nccc2c1[nH]c1ccccc12` are within 1.5-fold of each other in IC50: 0.45 µM for the first, 0.64 µM for the second.

`CCN(CC)C1CCN(c2nccc3c2[nH]c2ccc(Cl)cc23)CC1` and `CCN(CC)CCC(C)Nc1nccc2c1[nH]c1ccc(F)cc12` (stereo unspecified) are within 1.5-fold of each other in IC50: 1.6 µM for the first, 1.2 µM for the second.

`OCCNc1nccc2c1[nH]c1ccccc12` gave an IC50 of 2.4 µM.

Each compound was assayed on Plasmodium falciparum (assay: Antimalarial activity against chloroquine-resistant Plasmodium falciparum). Details: not given.
Format: functional, organism-based

First: COC(=O)C1Cc2c([nH]c3ccccc23)C(c2c[nH]c3ccccc23)=N1 (stereo unspecified)
Second: COC(=O)C1Cc2c([nH]c3ccccc23)C(c2c[nH]c3ccccc23)N1 (stereo unspecified)
The IC50 of the first is higher: > 29 µM for the first, 13.6 µM for the second. The second is the more potent here.

Going from `COc1ccc2[nH]cc(-c3nccc4c3[nH]c3ccc(OC)cc34)c2c1` to `Oc1ccc2[nH]cc(-c3nccc4c3[nH]c3ccc(O)cc34)c2c1`, the IC50 rises from 4.7 µM to 11 µM (2.3-fold).

`COC(=O)c1cc2c([nH]c3ccccc32)c(-c2c[nH]c3ccccc23)n1` and `O=C(O)c1cc2c([nH]c3ccccc32)c(-c2c[nH]c3ccccc23)n1` cannot be ordered by IC50: > 29 µM for the first, > 3.1 µM for the second.

Compared with `c1ccc2c(C3NCCc4c3[nH]c3ccccc43)c[nH]c2c1` (stereo unspecified), `COc1ccc2[nH]cc(C3NCCc4c3[nH]c3ccc(OC)cc43)c2c1` (stereo unspecified) is 1.6-fold higher in IC50: 5.1 µM for the first, 8 µM for the second. The first is the more potent here.

For `c1ccc2c(-c3nccc4c3[nH]c3ccccc34)c[nH]c2c1`, the IC50 was 14.4 µM.

Each compound was assayed on Plasmodium falciparum (assay: Antimalarial activity against chloroquine sensitive Plasmodium falciparum 3D7). Details: not given.
Format: functional, organism-based

`COC(=O)c1cc2c3c(c1)c1ccccc1n3C=C(C)OC2` and `COC(=O)c1cc2c3c(c1)c1cc(Cl)ccc1n3C=C(C)OC2` cannot be ordered by IC50: > 5 µM for the first, > 1.78 µM for the second.

Going from `C=C(CC1OC(C)=Cn2c3ccccc3c3cc(C(=O)OC)cc1c32)C(=O)OC` (stereo unspecified) to `C=C(C)CC1OC(C)=Cn2c3ccccc3c3cc(C(=O)OC)cc1c32` (stereo unspecified), the IC50 rises from 0.57 µM to > 5 µM. The first is the more potent here.

`COC(=O)c1cc2c3c(c1)c1ccccc1n3C=C(C)OC2CC=C(C)C` (stereo unspecified) and `C=CCC1OC(C)=Cn2c3ccccc3c3cc(C(=O)OC)cc1c32` (stereo unspecified) cannot be ordered by IC50: > 5 µM for the first, > 5 µM for the second.

First: COC(=O)c1cc2c3c(c1)c1ccccc1n3C=C(C)OC2C1=CCCC=C1 (stereo unspecified)
Second: COC(=O)c1cc2c3c(c1)c1ccccc1n3C=C(C)OC2C1C=CCCC1 (stereo unspecified)
The IC50 of the first is higher: > 5 µM for the first, 1.64 µM for the second.

`C/C=C/CC1OC(C)=Cn2c3ccccc3c3cc(C(=O)OC)cc1c32` (stereo unspecified) and `C=CCC1OC(C)=Cn2c3ccc(Cl)cc3c3cc(C(=O)OC)cc1c32` (stereo unspecified) cannot be ordered by IC50: > 5 µM for the first, > 5 µM for the second.

First: COC(=O)c1cc2c3c(c1)c1cc(Cl)ccc1n3C=C(C)OC2C/C=C(\C)CCC=C(C)C (stereo unspecified)
Second: COC(=O)c1cc2c3c(c1)c1cc(Br)ccc1n3C=C(C)OC2
The IC50 of the first is lower: 1.55 µM for the first, > 5 µM for the second. The first is the more potent here.

`C=C(C#N)C1OC(C)=Cn2c3ccccc3c3cc(C(=O)OC)cc1c32` (stereo unspecified) was tested, and the IC50 was > 5 µM.

These compounds were tested on Plasmodium falciparum (assay: Antimalarial activity against chloroquine sensitive Plasmodium falciparum K1). Details: not given.
Format: functional, organism-based

Compared with `C=C(CC1OC(C)=Cn2c3ccccc3c3cc(C(=O)OC)cc1c32)C(=O)OC` (stereo unspecified), `C=CCC1OC(C)=Cn2c3ccccc3c3cc(C(=O)OC)cc1c32` (stereo unspecified) is higher in IC50: 0.72 µM for the first, > 5 µM for the second.

`COC(=O)c1cc2c3c(c1)c1ccccc1n3C=C(C)OC2CC=C(C)C` (stereo unspecified) and `COC(=O)c1cc2c3c(c1)c1cc(Cl)ccc1n3C=C(C)OC2C/C=C(\C)CCC=C(C)C` (stereo unspecified) cannot be ordered by IC50: > 5 µM for the first, > 5 µM for the second.

`COC(=O)c1cc2c3c(c1)c1ccccc1n3C=C(C)OC2C1=CCCC=C1` (stereo unspecified) and `COC(=O)c1cc2c3c(c1)c1ccccc1n3C=C(C)OC2C1C=CCCC1` (stereo unspecified) cannot be ordered by IC50: > 5 µM for the first, > 5 µM for the second.

`COC(=O)c1cc2c3c(c1)c1cc(Cl)ccc1n3C=C(C)OC2` and `C=CCC1OC(C)=Cn2c3ccc(Cl)cc3c3cc(C(=O)OC)cc1c32` (stereo unspecified) cannot be ordered by IC50: > 2.45 µM for the first, > 5 µM for the second.
